Experimental findings from patent US8283353B2, “Fused ring compound and use thereof” (Takeda Pharmaceutical Company Limited, priority 2009, dated 2012) are described below.

One assay has as its target T1, human AT1 receptor (Homo sapiens, UniProt P30556).
T1 construct: expressed in transfected cells; membrane fraction
T1 sequence (P30556 1-359): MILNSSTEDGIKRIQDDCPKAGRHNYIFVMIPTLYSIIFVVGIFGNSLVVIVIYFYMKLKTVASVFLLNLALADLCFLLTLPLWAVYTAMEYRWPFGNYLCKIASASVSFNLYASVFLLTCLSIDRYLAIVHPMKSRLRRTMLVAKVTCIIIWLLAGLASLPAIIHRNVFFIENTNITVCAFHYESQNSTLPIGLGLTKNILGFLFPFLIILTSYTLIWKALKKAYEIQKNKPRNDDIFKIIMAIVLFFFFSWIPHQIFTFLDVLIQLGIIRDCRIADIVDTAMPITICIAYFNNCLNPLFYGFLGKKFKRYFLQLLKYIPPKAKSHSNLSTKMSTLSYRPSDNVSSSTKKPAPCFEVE
As to the kind of experiment: AT1 receptor antagonistic activity: [125I]-angiotensin II binding assay on human AT1 receptor-expressing CHO-K1 cellular membrane fraction. The following applies: 22.5 pM [125I]-angiotensin II, 1 hr room temperature. The procedure, abridged: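 Competition binding used radiolabelled angiotensin II on stably transfected CHO-K1 membrane fractions in Tris pH 7.4/MgCl2 buffer, optionally containing 0.3 mg/mL fatty acid-free BSA, 1 hr at room temperature. Filtration onto GF/C separated bound tracer, and nonspecific binding was measured with candesartan.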

For the next assay, the target named is T2, human PPARγ (Homo sapiens, UniProt P37231).
T2 construct: expressed in transfected cells
T2 sequence (P37231 1-477 isoform P37231-2): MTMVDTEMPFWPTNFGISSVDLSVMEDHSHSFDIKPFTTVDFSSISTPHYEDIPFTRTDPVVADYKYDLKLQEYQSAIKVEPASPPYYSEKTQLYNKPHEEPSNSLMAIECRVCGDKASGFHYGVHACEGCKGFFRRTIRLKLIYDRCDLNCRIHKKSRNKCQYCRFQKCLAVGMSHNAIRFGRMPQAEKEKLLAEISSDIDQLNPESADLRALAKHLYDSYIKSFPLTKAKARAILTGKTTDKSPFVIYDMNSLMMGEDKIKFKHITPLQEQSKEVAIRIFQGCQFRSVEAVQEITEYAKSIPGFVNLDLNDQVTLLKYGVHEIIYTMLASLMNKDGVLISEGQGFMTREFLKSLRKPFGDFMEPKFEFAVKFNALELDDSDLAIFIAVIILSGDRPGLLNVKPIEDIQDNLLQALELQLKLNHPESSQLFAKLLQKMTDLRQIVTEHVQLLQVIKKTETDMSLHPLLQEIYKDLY
T2 sequence (P19793 1-462 partner): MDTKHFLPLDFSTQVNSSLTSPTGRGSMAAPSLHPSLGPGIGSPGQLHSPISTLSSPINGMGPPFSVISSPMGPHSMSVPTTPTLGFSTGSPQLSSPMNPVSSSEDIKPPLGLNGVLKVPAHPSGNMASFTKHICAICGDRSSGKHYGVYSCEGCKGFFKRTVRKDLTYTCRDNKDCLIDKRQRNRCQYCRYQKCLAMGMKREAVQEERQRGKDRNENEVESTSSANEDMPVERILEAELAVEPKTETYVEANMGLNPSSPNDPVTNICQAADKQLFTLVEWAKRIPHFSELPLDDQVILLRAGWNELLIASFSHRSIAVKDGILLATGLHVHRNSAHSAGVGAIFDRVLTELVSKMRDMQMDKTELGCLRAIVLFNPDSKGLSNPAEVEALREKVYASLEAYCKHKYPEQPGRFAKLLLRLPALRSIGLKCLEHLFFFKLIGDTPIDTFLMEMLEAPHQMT
As to the kind of experiment: PPARγ agonistic activity: luciferase reporter assay in PPARγ:RXRα:4ERPP/CHO-K1 cells. The class given is cell-based. The note with it: CHO-K1, test compound 10^−6 M; luciferase activity of control compound X (1 μM) = 100%, non-administration group = 0%. The procedure, abridged: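 Activity is expressed relative to untreated cells (0%) and 1 μM reference compound X (100%), from luciferase luminescence. Reporter line: PPARγ:RXRα:4ERPP/CHO-K1, exposed to compound for one day at 37 °C in F12 medium containing 0.1% fatty-acid-free BSA.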

SMILES strings stand for the structures.

For `CCCc1c(Cc2ccc(-c3ccccc3-c3noc(=O)[nH]3)cc2)c(=O)n(C2CCC3(CC2)OCC(C)(C)CO3)c2ncnn12` [Example 170, 4-(3,3-dimethyl-1,5-dioxaspiro[5.5]undec-9-yl)-6-{[2′-(5-oxo-4,5-dihydro-1,2,4-oxadiazol-3-yl)biphenyl-4-yl]methyl}-7-propyl[1,2,4]triazolo[1,5-a]pyrimidin-5(4H)-one], at human AT1 receptor, the concentration for half-maximal inhibition (IC50) turned out to be 1.6 nM. Besides, at human PPARγ, the activation at 1 µM worked out at 20%.

`CCCc1c(Cc2ccc(-c3ccccc3-c3noc(=O)[nH]3)cc2)c(=O)n([C@H]2CC[C@H](c3nnc(C)o3)CC2)c2ncnn12` [Example 173, 4-[trans-4-(5-methyl-1,3,4-oxadiazol-2-yl)cyclohexyl]-6-{[2′-(5-oxo-4,5-dihydro-1,2,4-oxadiazol-3-yl)biphenyl-4-yl]methyl}-7-propyl[1,2,4]triazolo[1,5-a]pyrimidin-5(4H)-one] came in with a concentration for half-maximal inhibition (IC50) on human AT1 receptor of 1.7 nM. At human PPARγ, this molecule had an activation at 1 µM of 28%.

On human AT1 receptor, `CCCc1c(Cc2ccc(-c3ccccc3-c3noc(=O)[nH]3)cc2)c(=O)n(C2CCC3(CC2)OCC(C)(C)O3)c2ncnn12` (centres unmarked) [Example 179, 4-(2,2-dimethyl-1,4-dioxaspiro[4.5]dec-8-yl)-6-{[2′-(5-oxo-4,5-dihydro-1,2,4-oxadiazol-3-yl)biphenyl-4-yl]methyl}-7-propyl[1,2,4]triazolo[1,5-a]pyrimidin-5(4H)-one] gave an IC50 of 1.9 nM. Moreover, the activation at 1 µM on human PPARγ turned out to be 41%.

With `CCCc1c(Cc2ccc(-c3ccccc3-c3noc(=O)[nH]3)cc2)c(=O)n(C2CCC3(CC2)OC(C)(C)C(C)(C)O3)c2ncnn12` [Example 180, 6-{[2′-(5-oxo-4,5-dihydro-1,2,4-oxadiazol-3-yl)biphenyl-4-yl]methyl}-7-propyl-4-(2,2,3,3-tetramethyl-1,4-dioxaspiro[4.5]dec-8-yl)[1,2,4]triazolo[1,5-a]pyrimidin-5(4H)-one], the IC50 on human AT1 receptor was 3.5 nM. Moreover, the activation at 1 µM at human PPARγ was determined as 31%.

On human AT1 receptor, `CCCc1c(Cc2ccc(-c3ccccc3-c3nnn[nH]3)cc2)c(=O)n(C2CCC3(CC2)OC(C)(C)C(C)(C)O3)c2ncnn12` [Example 181, 7-propyl-4-(2,2,3,3-tetramethyl-1,4-dioxaspiro[4.5]dec-8-yl)-6-{[2′-(1H-tetrazol-5-yl)biphenyl-4-yl]methyl}[1,2,4]triazolo[1,5-a]pyrimidin-5(4H)-one] showed a concentration for half-maximal inhibition (IC50) of 3.2 nM. In addition, the activation at 1 µM at human PPARγ was determined as 18%.

On human AT1 receptor, `CCCc1c(Cc2ccc(-c3ccccc3-c3noc(=O)[nH]3)cc2)c(=O)n([C@H]2CC[C@](C)(OCCO)CC2)c2ncnn12` [Example 183, 4-[trans-4-(2-hydroxyethoxy)-4-methylcyclohexyl]-6-{[2′-(5-oxo-4,5-dihydro-1,2,4-oxadiazol-3-yl)biphenyl-4-yl]methyl}-7-propyl[1,2,4]triazolo[1,5-a]pyrimidin-5(4H)-one] returned an IC50 of 2.5 nM. On human PPARγ, the activation at 1 µM stood at 30%.

On human AT1 receptor, `CCCc1c(Cc2ccc(-c3ccccc3-c3noc(=O)[nH]3)cc2)c(=O)n([C@H]2CC[C@H](c3cnco3)CC2)c2ncnn12` [Example 184, 4-[trans-4-(1,3-oxazol-5-yl)cyclohexyl]-6-{[2′-(5-oxo-4,5-dihydro-1,2,4-oxadiazol-3-yl)biphenyl-4-yl]methyl}-7-propyl[1,2,4]triazolo[1,5-a]pyrimidin-5(4H)-one] came in with a half-maximal inhibitory concentration (IC50) of 2.5 nM. In addition, the activation at 1 µM at human PPARγ was 41%.

Take `CCCc1c(Cc2ccc(-c3ccccc3-c3nnn[nH]3)cc2)c(=O)n([C@H]2CC[C@H](c3cnco3)CC2)c2ncnn12` [Example 185, 4-[trans-4-(1,3-oxazol-5-yl)cyclohexyl]-7-propyl-6-{[2′-(1H-tetrazol-5-yl)biphenyl-4-yl]methyl}[1,2,4]triazolo[1,5-a]pyrimidin-5(4H)-one]: the concentration for half-maximal inhibition (IC50) on human AT1 receptor was determined as 2.3 nM. This molecule also yielded an activation at 1 µM on human PPARγ of 22%.

`CCCc1c(Cc2ccc(-c3ccccc3-c3noc(=O)[nH]3)cc2)c(=O)n([C@H]2CC[C@H](OCCCO)CC2)c2ncnn12` [Example 186, 4-[trans-4-(3-hydroxypropoxy)cyclohexyl]-6-{[2′-(5-oxo-4,5-dihydro-1,2,4-oxadiazol-3-yl)biphenyl-4-yl]methyl}-7-propyl[1,2,4]triazolo[1,5-a]pyrimidin-5(4H)-one] returned an IC50 at human AT1 receptor of 2.1 nM. The same molecule gave an activation at 1 µM on human PPARγ of 24%.

Turning to `CCCc1c(Cc2ccc(-c3ccccc3-c3noc(=O)[nH]3)cc2)c(=O)n(C2CCC(=NOC)CC2)c2ncnn12` (centres unmarked) [Example 188, 4-[4-(methoxyimino)cyclohexyl]-6-{[2′-(5-oxo-4,5-dihydro-1,2,4-oxadiazol-3-yl)biphenyl-4-yl]methyl}-7-propyl[1,2,4]triazolo[1,5-a]pyrimidin-5(4H)-one], on human AT1 receptor, the half-maximal inhibitory concentration (IC50) amounted to 1.9 nM. In addition, the activation at 1 µM on human PPARγ was 25%.

At human AT1 receptor, `CCCc1c(Cc2ccc(-c3ccccc3-c3noc(=O)[nH]3)cc2)c(=O)n([C@H]2CC[C@](C)(CO)CC2)c2ncnn12` [Example 189, 4-[trans-4-(hydroxymethyl)-4-methylcyclohexyl]-6-{[2′-(5-oxo-4,5-dihydro-1,2,4-oxadiazol-3-yl)biphenyl-4-yl]methyl}-7-propyl[1,2,4]triazolo[1,5-a]pyrimidin-5(4H)-one] yielded a half-inhibitory concentration (IC50) of 3.1 nM. Also, the activation at 1 µM on human PPARγ worked out at 35%.

Consider `CCCc1c(Cc2ccc(-c3ccccc3-c3noc(=O)[nH]3)cc2)c(=O)n(C2CCC(=CCO)CC2)c2ncnn12` (centres unmarked) [Example 191, 4-[4-(2-hydroxyethylidene)cyclohexyl]-6-{[2′-(5-oxo-4,5-dihydro-1,2,4-oxadiazol-3-yl)biphenyl-4-yl]methyl}-7-propyl[1,2,4]triazolo[1,5-a]pyrimidin-5(4H)-one], for which, at human AT1 receptor, the half-inhibitory concentration (IC50) was 1.6 nM. Besides, on human PPARγ, the activation at 1 µM was found to be 34%.

Consider `CCCc1c(Cc2ccc(-c3ccccc3-c3noc(=O)[nH]3)cc2)c(=O)n(C2CCC(=NOC(C)C)CC2)c2ncnn12` (centres unmarked) [Example 193, 4-{4-[(1-methylethoxy)imino]cyclohexyl}-6-{[2′-(5-oxo-4,5-dihydro-1,2,4-oxadiazol-3-yl)biphenyl-4-yl]methyl}-7-propyl[1,2,4]triazolo[1,5-a]pyrimidin-5(4H)-one], for which the half-inhibitory concentration (IC50) on human AT1 receptor was 2 nM. The activation at 1 µM at human PPARγ is 28%.

`CCCc1c(Cc2ccc(-c3ccccc3-c3noc(=O)[nH]3)cc2)c(=O)n(C2CCC(=NOC3CCOCC3)CC2)c2ncnn12` (centres unmarked) [Example 195, 6-{[2′-(5-oxo-4,5-dihydro-1,2,4-oxadiazol-3-yl)biphenyl-4-yl]methyl}-7-propyl-4-{4-[(tetrahydro-2H-pyran-4-yloxy)imino]cyclohexyl}[1,2,4]triazolo[1,5-a]pyrimidin-5(4H)-one]: on human AT1 receptor, the IC50 stood at 2.5 nM. For the same molecule, the activation at 1 µM at human PPARγ was 19%.

Turning to `CCCc1c(Cc2ccc(-c3ccccc3-c3noc(=O)[nH]3)cc2)c(=O)n([C@H]2CC[C@H](OCC(O)(CC)CC)CC2)c2nc(C)nn12` [Example 197, 4-[trans-4-(2-ethyl-2-hydroxybutoxy)cyclohexyl]-2-methyl-6-{[2′-(5-oxo-4,5-dihydro-1,2,4-oxadiazol-3-yl)biphenyl-4-yl]methyl}-7-propyl[1,2,4]triazolo[1,5-a]pyrimidin-5(4H)-one], at human AT1 receptor, the half-maximal inhibitory concentration (IC50) was 2 nM. This molecule also showed an activation at 1 µM at human PPARγ of 17%.

On to `CCCc1c(Cc2ccc(-c3ccccc3-c3noc(=O)[nH]3)cc2)c(=O)n([C@H]2CC[C@]3(CC2)CC(C)=NO3)c2ncnn12` [Example 204, 4-[(5R,8R)-3-methyl-1-oxa-2-azaspiro[4.5]dec-2-en-8-yl]-6-{[2′-(5-oxo-4,5-dihydro-1,2,4-oxadiazol-3-yl)biphenyl-4-yl]methyl}-7-propyl[1,2,4]triazolo[1,5-a]pyrimidin-5(4H)-one], for which the concentration for half-maximal inhibition (IC50) at human AT1 receptor worked out at 2.7 nM. The molecule further registered an activation at 1 µM on human PPARγ of 26%.
